Among the data in PubChem BioAssay AID1259407 (Chemical Carcinogenesis Research Information System (CCRIS), 2018) are mutagenic call values, retold here.

Active and inactive are the calls of the source. The rule behind the calls is not given here.

In the data set the test system is CCRIS mutagenicity, Ames/micronucleus/aberration tests. Briefly: CCRIS mutagenicity studies.
The mark [1] stands for this setting: Test System: AMES SALMONELLA TYPHIMURIUM, Strain/Indicator: TA98, Metabolic Activation: NONE, Method: PREINCUBATION
[2] abbreviates: Test System: AMES SALMONELLA TYPHIMURIUM, Strain/Indicator: TA100, Metabolic Activation: NONE, Method: PREINCUBATION
The mark [3] stands for this setting: Test System: AMES SALMONELLA TYPHIMURIUM, Strain/Indicator: TA98, Metabolic Activation: NONE, Method: STANDARD PLATE.
The mark [4] stands for this setting: Test System: AMES SALMONELLA TYPHIMURIUM, Strain/Indicator: TA98, Metabolic Activation: S-9, Method: STANDARD PLATE.
Where [5] appears, read: Test System: AMES SALMONELLA TYPHIMURIUM, Strain/Indicator: TA100, Metabolic Activation: NONE, Method: STANDARD PLATE.
[6] abbreviates: Test System: AMES SALMONELLA TYPHIMURIUM, Strain/Indicator: TA100, Metabolic Activation: S-9, Method: STANDARD PLATE.
[7] abbreviates: Test System: AMES SALMONELLA TYPHIMURIUM, Strain/Indicator: TA1535, Metabolic Activation: NONE, Method: STANDARD PLATE.
Where [8] appears, read: Test System: AMES SALMONELLA TYPHIMURIUM, Strain/Indicator: TA1535, Metabolic Activation: S-9, Method: STANDARD PLATE.
[9] abbreviates: Test System: AMES SALMONELLA TYPHIMURIUM, Strain/Indicator: TA1537, Metabolic Activation: NONE, Method: STANDARD PLATE.
The mark [10] stands for this setting: Test System: AMES SALMONELLA TYPHIMURIUM, Strain/Indicator: TA1537, Metabolic Activation: S-9, Method: STANDARD PLATE.

As for `NS(=O)(=O)c1cc2c(cc1Cl)NC=NS2(=O)=O`, the mutagenic call is, setting by setting: (Test System: AMES SALMONELLA TYPHIMURIUM, Strain/Indicator: TA97, Metabolic Activation: HAMSTER, LIVER, S-9, AROCLOR 1254 (10 OR 30%), Method: PREINCUBATION) “inactive; negative”; (Test System: AMES SALMONELLA TYPHIMURIUM, Strain/Indicator: TA97, Metabolic Activation: NONE, Method: PREINCUBATION) “inactive; negative”; (Test System: AMES SALMONELLA TYPHIMURIUM, Strain/Indicator: TA97, Metabolic Activation: RAT, LIVER, S-9, AROCLOR 1254 (10 OR 30%), Method: PREINCUBATION) “inactive; negative”; (Test System: AMES SALMONELLA TYPHIMURIUM, Strain/Indicator: TA98, Metabolic Activation: HAMSTER, LIVER, S-9, AROCLOR 1254 (10 OR 30%), Method: PREINCUBATION) “inactive; negative”; under setting [1], “inactive; negative”; (Test System: AMES SALMONELLA TYPHIMURIUM, Strain/Indicator: TA98, Metabolic Activation: RAT, LIVER, S-9, AROCLOR 1254 (10 OR 30%), Method: PREINCUBATION) “inactive; negative”. Moreover, the mutagenic call reads like this: (Test System: AMES SALMONELLA TYPHIMURIUM, Strain/Indicator: TA100, Metabolic Activation: HAMSTER, LIVER, S-9, AROCLOR 1254 (10 OR 30%), Method: PREINCUBATION) “inactive; negative”; under setting [2], “inactive; negative”; (Test System: AMES SALMONELLA TYPHIMURIUM, Strain/Indicator: TA100, Metabolic Activation: RAT, LIVER, S-9, AROCLOR 1254 (10 OR 30%), Method: PREINCUBATION) “inactive; negative”; (Test System: AMES SALMONELLA TYPHIMURIUM, Strain/Indicator: TA1535, Metabolic Activation: HAMSTER, LIVER, S-9, AROCLOR 1254 (10 OR 30%), Method: PREINCUBATION) “inactive; negative”; (Test System: AMES SALMONELLA TYPHIMURIUM, Strain/Indicator: TA1535, Metabolic Activation: NONE, Method: PREINCUBATION) “inactive; negative”; (Test System: AMES SALMONELLA TYPHIMURIUM, Strain/Indicator: TA1535, Metabolic Activation: RAT, LIVER, S-9, AROCLOR 1254 (10 OR 30%), Method: PREINCUBATION) “inactive; negative”. Besides, the mutagenic call is, setting by setting: (Test System: AMES SALMONELLA TYPHIMURIUM, Strain/Indicator: TA1537, Metabolic Activation: HAMSTER, LIVER, S-9, AROCLOR 1254 (30%), Method: PREINCUBATION) “inactive; negative”; (Test System: AMES SALMONELLA TYPHIMURIUM, Strain/Indicator: TA1537, Metabolic Activation: NONE, Method: PREINCUBATION) “inactive; negative”; (Test System: AMES SALMONELLA TYPHIMURIUM, Strain/Indicator: TA1537, Metabolic Activation: RAT, LIVER, S-9, AROCLOR 1254 (30%), Method: PREINCUBATION) “inactive; negative”.

As to `Cc1ccc2nsc(N)c2c1`, the mutagenic call under setting [3] is “inactive; negative”; the mutagenic call under setting [4] is “active; positive”; the mutagenic call under setting [5] was “inactive; negative”; the mutagenic call under setting [6] was “active; positive”; the mutagenic call under setting [7] was “inactive; negative”; the mutagenic call under setting [8] was “inactive; negative”. Also, the mutagenic call reads like this: under setting [9], “inactive; negative”; under setting [10], “active; positive”.

As for `Cc1cccc(N)c1N`, the mutagenic call (Test System: AMES SALMONELLA TYPHIMURIUM, Strain/Indicator: TA98, Metabolic Activation: RAT, LIVER, MICROSOMES, AROCLOR 1254, Method: PREINCUBATION) is “active; positive”; the mutagenic call (Test System: AMES SALMONELLA TYPHIMURIUM, Strain/Indicator: TA98, Metabolic Activation: RAT, LIVER, MICROSOMES, DIAMINOTOLUENE, Method: PREINCUBATION) was “active; positive”; the mutagenic call (Test System: AMES SALMONELLA TYPHIMURIUM, Strain/Indicator: TA98, Metabolic Activation: RAT, LIVER, MICROSOMES, Method: PREINCUBATION) was “active; positive”.

For `CCCCCCCC/C=C\CCCCCCCCN` (tested in a mixture with another compound), the mutagenic call was “inactive; negative” under setting [3]; “active; positive” (Test System: AMES SALMONELLA TYPHIMURIUM, Strain/Indicator: TA98, Metabolic Activation: RAT, LIVER, S-9, AROCLOR 1254, Method: STANDARD PLATE); “inactive; negative” under setting [5]; “inactive; negative” (Test System: AMES SALMONELLA TYPHIMURIUM, Strain/Indicator: TA100, Metabolic Activation: RAT, LIVER, S-9, AROCLOR 1254, Method: STANDARD PLATE); “inactive; negative” under setting [7]; “inactive; negative” (Test System: AMES SALMONELLA TYPHIMURIUM, Strain/Indicator: TA1535, Metabolic Activation: RAT, LIVER, S-9, AROCLOR 1254, Method: STANDARD PLATE). Moreover, the mutagenic call is “inactive; negative” under setting [9]; “inactive; negative” (Test System: AMES SALMONELLA TYPHIMURIUM, Strain/Indicator: TA1537, Metabolic Activation: RAT, LIVER, S-9, AROCLOR 1254, Method: STANDARD PLATE); “inactive; negative” (Test System: AMES SALMONELLA TYPHIMURIUM, Strain/Indicator: TA1538, Metabolic Activation: NONE, Method: STANDARD PLATE); “active; positive” (Test System: AMES SALMONELLA TYPHIMURIUM, Strain/Indicator: TA1538, Metabolic Activation: RAT, LIVER, S-9, AROCLOR 1254, Method: STANDARD PLATE).

As to `O=C1NC2(CCCCC2)C(=O)N1CCN1CC1`, under setting [7], the mutagenic call was “active; positive”.

Regarding `O=Cc1cc(=O)[nH]c(=O)[nH]1`, the mutagenic call (Test System: CHINESE HAMSTER V-79, Strain/Indicator: V-79 (HPRT)/6-THIOGUANINE, Metabolic Activation: NONE, Method: STANDARD PLATE) was “active; positive”.

Consider `[Cl][Sn]([Cl])([Cl])[c]1ccccc1`, for which the mutagenic call is, setting by setting: (Test System: AMES SALMONELLA TYPHIMURIUM, Strain/Indicator: TA98, Metabolic Activation: NONE, Method: SUSPENSION/PLATE) “inactive; negative”; (Test System: AMES SALMONELLA TYPHIMURIUM, Strain/Indicator: TA100, Metabolic Activation: NONE, Method: SUSPENSION/PLATE) “inactive; negative”.

For `CN(C(=O)CCCCl)c1snc2ccccc12`, the mutagenic call was “inactive; negative” under setting [3]; “inactive; negative” under setting [4]; “inactive; negative” under setting [5]; “inactive; negative” under setting [6]; “inactive; negative” under setting [7]; “inactive; negative” under setting [8]. The mutagenic call reads like this: under setting [9], “inactive; negative”; under setting [10], “inactive; negative”.

As to `[Cl-].[Cl-].[NH2-].[NH2-].[NH2-].[NH2-].[Pt+2]`, the mutagenic call reads like this: under setting [1], “inactive; negative”; (Test System: AMES SALMONELLA TYPHIMURIUM, Strain/Indicator: TA98, Metabolic Activation: RAT, LIVER, S-9, AROCLOR 1254, Method: PREINCUBATION) “inactive; negative”; under setting [2], “inactive; negative”; (Test System: AMES SALMONELLA TYPHIMURIUM, Strain/Indicator: TA100, Metabolic Activation: RAT, LIVER, S-9, AROCLOR 1254, Method: PREINCUBATION) “inactive; negative”.
